Several values for one entry are separate records, joined by “and”; a condition that tells them apart may be missing. Equal entries are not always repeated.
Assays:
Set-up in all cases: scale not given: the % may be the effect or the level left
[1] = target: Serine/threonine-protein kinase mTOR (Homo sapiens) (UniProt P42345); assay: Inhibition of human MTOR assessed as percent of control at 2000 nM by KINOMEscan assay relative to control
[2] = target: Serine/threonine-protein kinase MRCK alpha (Homo sapiens) (UniProt Q5VT25); assay: Inhibition of human MRCKA assessed as percent of control at 2000 nM by KINOMEscan assay relative to control
[3] = test system: Tyrosine-protein kinase ABL1 (Homo sapiens), P00519 [F317I]; assay: Inhibition of non-phosphorylated human ABL1 F317I mutant assessed as percent of control at 2000 nM by KINOMEscan assay relative to control
[4] = target: Receptor-interacting serine/threonine-protein kinase 4 (Homo sapiens) (UniProt P57078); assay: Inhibition of human RIPK4 assessed as percent of control at 2000 nM by KINOMEscan assay relative to control
Sequence of Receptor-interacting serine/threonine-protein kinase 4 (Homo sapiens) (P57078 whole entry): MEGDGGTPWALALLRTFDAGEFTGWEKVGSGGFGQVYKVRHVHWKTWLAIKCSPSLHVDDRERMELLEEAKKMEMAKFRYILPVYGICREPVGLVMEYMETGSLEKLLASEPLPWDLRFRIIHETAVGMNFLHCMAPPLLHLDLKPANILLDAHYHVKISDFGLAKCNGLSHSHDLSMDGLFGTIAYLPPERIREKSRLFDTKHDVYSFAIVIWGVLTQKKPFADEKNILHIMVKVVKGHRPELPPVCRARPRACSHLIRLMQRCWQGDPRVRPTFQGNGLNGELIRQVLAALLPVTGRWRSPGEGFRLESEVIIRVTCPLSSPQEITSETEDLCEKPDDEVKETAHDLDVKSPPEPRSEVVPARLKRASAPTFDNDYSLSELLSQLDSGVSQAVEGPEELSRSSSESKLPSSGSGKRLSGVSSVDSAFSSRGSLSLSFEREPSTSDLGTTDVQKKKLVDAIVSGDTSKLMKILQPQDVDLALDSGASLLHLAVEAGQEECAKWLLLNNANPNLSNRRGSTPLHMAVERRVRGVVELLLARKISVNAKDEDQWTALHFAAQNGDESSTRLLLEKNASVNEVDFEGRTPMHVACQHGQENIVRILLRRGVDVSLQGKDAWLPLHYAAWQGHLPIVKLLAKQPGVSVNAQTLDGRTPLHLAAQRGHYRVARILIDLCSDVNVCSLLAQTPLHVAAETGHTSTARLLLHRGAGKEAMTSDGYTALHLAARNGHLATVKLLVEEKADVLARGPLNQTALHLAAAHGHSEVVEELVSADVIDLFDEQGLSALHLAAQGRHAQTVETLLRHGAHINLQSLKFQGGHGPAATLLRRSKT

[5] = target: Serine/threonine-protein kinase Nek11 (Homo sapiens) (UniProt Q8NG66); assay: Inhibition of human NEK11 assessed as percent of control at 2000 nM by KINOMEscan assay relative to control
Sequence of Serine/threonine-protein kinase Nek11 (Homo sapiens) (Q8NG66 whole entry): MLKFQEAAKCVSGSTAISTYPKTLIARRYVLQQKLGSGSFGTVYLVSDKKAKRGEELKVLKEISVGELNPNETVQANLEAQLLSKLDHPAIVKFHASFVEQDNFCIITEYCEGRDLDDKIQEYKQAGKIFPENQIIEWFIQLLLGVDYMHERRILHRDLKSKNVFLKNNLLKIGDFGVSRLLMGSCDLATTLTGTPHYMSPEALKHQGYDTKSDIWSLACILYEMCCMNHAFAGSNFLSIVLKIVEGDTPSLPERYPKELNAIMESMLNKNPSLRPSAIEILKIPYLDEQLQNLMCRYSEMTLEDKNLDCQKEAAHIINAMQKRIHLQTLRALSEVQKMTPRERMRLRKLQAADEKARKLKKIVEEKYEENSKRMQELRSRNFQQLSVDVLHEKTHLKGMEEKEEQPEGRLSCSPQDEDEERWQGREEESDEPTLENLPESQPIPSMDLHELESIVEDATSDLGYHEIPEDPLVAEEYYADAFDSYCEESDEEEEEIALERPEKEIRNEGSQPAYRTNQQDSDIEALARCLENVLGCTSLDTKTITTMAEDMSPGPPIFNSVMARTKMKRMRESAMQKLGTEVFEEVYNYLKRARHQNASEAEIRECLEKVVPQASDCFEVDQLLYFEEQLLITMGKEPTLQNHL

[6] = target: Megakaryocyte-associated tyrosine-protein kinase (Homo sapiens) (UniProt P42679); assay: Inhibition of human CTK assessed as percent of control at 2000 nM by KINOMEscan assay relative to control
[7] = target: Cyclin-dependent kinase 18 (Homo sapiens) (UniProt Q07002); assay: Inhibition of human PCTK3 assessed as percent of control at 2000 nM by KINOMEscan assay relative to control
[8] = target: Cyclin-dependent kinase-like 3 (Homo sapiens) (UniProt Q8IVW4); assay: Inhibition of human CDKL3 assessed as percent of control at 2000 nM by KINOMEscan assay relative to control
[9] = target: Wee1-like protein kinase 2 (Homo sapiens) (UniProt P0C1S8); assay: Inhibition of human WEE2 assessed as percent of control at 2000 nM by KINOMEscan assay relative to control
[10] = target: Serine/threonine-protein kinase PLK2 (Homo sapiens) (UniProt Q9NYY3); assay: Inhibition of human PLK2 assessed as percent of control at 2000 nM by KINOMEscan assay relative to control
[11] = target: Ephrin type-B receptor 1 (Homo sapiens) (UniProt P54762); assay: Inhibition of human EPHB1 assessed as percent of control at 2000 nM by KINOMEscan assay relative to control
[12] = target: Mitogen-activated protein kinase 10 (Homo sapiens) (UniProt P53779); assay: Inhibition of human JNK3 assessed as percent of control at 2000 nM by KINOMEscan assay relative to control
[13] = target: Calcium/calmodulin-dependent protein kinase type II subunit beta (Homo sapiens) (UniProt Q13554); assay: Inhibition of human CAMK2B assessed as percent of control at 2000 nM by KINOMEscan assay relative to control
[14] = test system: Phosphatidylinositol 4,5-bisphosphate 3-kinase catalytic subunit alpha isoform (Homo sapiens), P42336 [H1047L]; assay: Inhibition of human PIK3CA H1047L mutant assessed as percent of control at 2000 nM by KINOMEscan assay relative to control
Sequence of Phosphatidylinositol 4,5-bisphosphate 3-kinase catalytic subunit alpha isoform (Homo sapiens), P42336 [H1047L] (P42336 whole entry H1047L, canonical isoform): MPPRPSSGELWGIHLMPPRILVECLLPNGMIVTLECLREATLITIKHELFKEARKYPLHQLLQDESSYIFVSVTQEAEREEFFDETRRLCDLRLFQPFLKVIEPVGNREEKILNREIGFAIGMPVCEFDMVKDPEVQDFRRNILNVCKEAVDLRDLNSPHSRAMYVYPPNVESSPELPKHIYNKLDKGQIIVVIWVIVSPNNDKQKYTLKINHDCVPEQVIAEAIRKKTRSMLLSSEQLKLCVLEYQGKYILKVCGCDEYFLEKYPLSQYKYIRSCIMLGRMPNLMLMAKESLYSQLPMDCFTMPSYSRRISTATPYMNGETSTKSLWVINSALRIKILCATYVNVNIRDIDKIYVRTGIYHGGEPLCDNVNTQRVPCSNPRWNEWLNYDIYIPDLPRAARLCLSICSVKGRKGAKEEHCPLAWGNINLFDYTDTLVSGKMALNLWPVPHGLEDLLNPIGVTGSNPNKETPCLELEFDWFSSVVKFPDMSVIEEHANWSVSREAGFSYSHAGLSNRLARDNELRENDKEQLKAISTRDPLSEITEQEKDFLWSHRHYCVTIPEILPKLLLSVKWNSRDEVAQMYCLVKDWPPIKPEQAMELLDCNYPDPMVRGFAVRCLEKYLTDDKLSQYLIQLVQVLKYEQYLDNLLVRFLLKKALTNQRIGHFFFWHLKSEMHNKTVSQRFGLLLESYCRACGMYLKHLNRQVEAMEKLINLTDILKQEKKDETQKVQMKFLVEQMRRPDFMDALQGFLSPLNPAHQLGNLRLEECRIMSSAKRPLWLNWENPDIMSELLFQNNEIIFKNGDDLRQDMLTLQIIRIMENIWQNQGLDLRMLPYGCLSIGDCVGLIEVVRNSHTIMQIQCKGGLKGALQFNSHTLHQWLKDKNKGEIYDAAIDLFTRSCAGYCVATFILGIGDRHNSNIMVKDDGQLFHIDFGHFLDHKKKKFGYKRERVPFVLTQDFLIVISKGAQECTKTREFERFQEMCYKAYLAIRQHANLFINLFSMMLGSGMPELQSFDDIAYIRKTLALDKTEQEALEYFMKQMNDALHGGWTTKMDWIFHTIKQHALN

[15] = target: Serine/threonine-protein kinase 38-like (Homo sapiens) (UniProt Q9Y2H1); assay: Inhibition of human NDR2 assessed as percent of control at 2000 nM by KINOMEscan assay relative to control
[16] = target: Beta-adrenergic receptor kinase 1 (Homo sapiens) (UniProt P25098); assay: Inhibition of human GRK2 assessed as percent of control at 2000 nM by KINOMEscan assay relative to control
[17] = target: Mitogen-activated protein kinase kinase kinase 14 (Homo sapiens) (UniProt Q99558); assay: Inhibition of human NIK assessed as percent of control at 2000 nM by KINOMEscan assay relative to control
[18] = target: Serine/threonine-protein kinase PAK 3 (Homo sapiens) (UniProt O75914); assay: Inhibition of human PAK3 assessed as percent of control at 2000 nM by KINOMEscan assay relative to control
Sequence of Serine/threonine-protein kinase PAK 3 (Homo sapiens) (O75914 whole entry, looked up): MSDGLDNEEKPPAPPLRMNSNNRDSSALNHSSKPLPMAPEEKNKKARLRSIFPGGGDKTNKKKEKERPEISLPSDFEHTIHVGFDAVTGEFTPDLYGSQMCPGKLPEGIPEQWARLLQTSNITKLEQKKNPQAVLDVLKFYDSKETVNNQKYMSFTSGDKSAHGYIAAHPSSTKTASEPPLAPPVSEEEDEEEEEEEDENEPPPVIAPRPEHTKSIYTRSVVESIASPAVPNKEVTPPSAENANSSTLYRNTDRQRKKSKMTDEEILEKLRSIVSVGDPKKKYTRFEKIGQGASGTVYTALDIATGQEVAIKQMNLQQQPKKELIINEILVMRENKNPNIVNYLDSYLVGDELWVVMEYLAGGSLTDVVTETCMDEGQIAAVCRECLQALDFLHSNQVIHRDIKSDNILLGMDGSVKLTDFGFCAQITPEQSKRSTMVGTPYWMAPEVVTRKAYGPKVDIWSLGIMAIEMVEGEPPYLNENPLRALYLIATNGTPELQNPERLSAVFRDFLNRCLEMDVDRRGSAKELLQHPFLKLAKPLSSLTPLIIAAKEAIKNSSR

[19] = target: Non-receptor tyrosine-protein kinase TNK1 (Homo sapiens) (UniProt Q13470); assay: Inhibition of human TNK1 assessed as percent of control at 2000 nM by KINOMEscan assay relative to control
[20] = target: Hormonally up-regulated neu tumor-associated kinase (Homo sapiens) (UniProt P57058); assay: Inhibition of human HUNK assessed as percent of control at 2000 nM by KINOMEscan assay relative to control
[21] = target: Myotonin-protein kinase (Homo sapiens) (UniProt Q09013); assay: Inhibition of human DMPK assessed as percent of control at 2000 nM by KINOMEscan assay relative to control
[22] = target: Dual specificity testis-specific protein kinase 1 (Homo sapiens) (UniProt Q15569); assay: Inhibition of human TESK1 assessed as percent of control at 2000 nM by KINOMEscan assay relative to control
[23] = target: Dual specificity mitogen-activated protein kinase kinase 2 (Homo sapiens) (UniProt P36507); assay: Inhibition of human MEK2 assessed as percent of control at 2000 nM by KINOMEscan assay relative to control
Sequence of Dual specificity mitogen-activated protein kinase kinase 2 (Homo sapiens) (P36507 whole entry): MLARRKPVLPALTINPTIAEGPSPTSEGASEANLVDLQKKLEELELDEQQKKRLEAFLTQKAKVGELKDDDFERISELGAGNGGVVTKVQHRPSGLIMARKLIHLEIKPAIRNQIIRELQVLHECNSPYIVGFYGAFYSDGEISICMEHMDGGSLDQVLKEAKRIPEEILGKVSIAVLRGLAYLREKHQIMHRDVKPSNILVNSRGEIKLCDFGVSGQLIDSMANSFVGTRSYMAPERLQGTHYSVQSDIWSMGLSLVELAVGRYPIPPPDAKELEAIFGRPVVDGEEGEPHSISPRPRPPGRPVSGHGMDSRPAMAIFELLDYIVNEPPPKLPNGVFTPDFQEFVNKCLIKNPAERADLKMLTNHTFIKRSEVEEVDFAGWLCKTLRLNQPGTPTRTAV

[24] = test system: Epidermal growth factor receptor (Homo sapiens), P00533 [UNDEFINED MUTATION]; assay: Inhibition of human EGFR […] mutant assessed as percent of control at 2000 nM by KINOMEscan assay relative to control
Sequence of Epidermal growth factor receptor (Homo sapiens), P00533 [UNDEFINED MUTATION] (P00533 whole entry, looked up, stated change not applied): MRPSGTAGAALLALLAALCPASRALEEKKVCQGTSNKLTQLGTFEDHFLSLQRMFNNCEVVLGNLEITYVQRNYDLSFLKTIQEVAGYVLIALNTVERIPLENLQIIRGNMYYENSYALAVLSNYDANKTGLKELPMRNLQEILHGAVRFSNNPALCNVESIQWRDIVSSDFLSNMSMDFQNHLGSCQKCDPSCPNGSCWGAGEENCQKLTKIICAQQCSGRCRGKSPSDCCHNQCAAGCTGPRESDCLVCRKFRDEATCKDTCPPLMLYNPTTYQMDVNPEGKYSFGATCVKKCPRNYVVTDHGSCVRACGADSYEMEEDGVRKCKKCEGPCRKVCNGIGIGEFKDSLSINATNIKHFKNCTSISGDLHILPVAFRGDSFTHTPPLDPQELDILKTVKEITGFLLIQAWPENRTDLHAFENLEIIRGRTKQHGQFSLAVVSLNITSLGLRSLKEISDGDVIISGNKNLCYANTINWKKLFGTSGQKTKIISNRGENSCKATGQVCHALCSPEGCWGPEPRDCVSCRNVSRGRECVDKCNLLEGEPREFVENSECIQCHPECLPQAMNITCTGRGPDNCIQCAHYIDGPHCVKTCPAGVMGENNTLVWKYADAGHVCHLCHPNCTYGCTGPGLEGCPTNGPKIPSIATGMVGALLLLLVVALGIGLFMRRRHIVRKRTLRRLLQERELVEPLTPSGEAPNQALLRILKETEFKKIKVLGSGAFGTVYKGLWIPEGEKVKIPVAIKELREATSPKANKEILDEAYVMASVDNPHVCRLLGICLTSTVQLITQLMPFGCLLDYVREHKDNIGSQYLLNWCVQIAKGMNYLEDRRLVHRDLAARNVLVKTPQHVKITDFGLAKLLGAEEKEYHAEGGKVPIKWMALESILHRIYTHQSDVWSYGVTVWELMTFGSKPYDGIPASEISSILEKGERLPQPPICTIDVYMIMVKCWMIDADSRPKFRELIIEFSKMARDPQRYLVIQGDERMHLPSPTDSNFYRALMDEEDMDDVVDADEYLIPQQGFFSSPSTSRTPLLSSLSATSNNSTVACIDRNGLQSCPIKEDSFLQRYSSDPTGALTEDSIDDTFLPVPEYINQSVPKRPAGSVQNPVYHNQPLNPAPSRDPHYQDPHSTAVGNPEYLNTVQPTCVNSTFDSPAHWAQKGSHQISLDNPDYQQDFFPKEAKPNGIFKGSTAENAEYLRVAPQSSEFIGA

[25] = target: Cyclin-dependent kinase 4/cyclin D1 (Homo sapiens) (UniProt P11802+P24385); assay: Inhibition of human CDK4/cyclin D1 assessed as percent of control at 2000 nM by KINOMEscan assay relative to control; format: protein-complex assay
[26] = target: Serine/threonine-protein kinase Nek9 (Homo sapiens) (UniProt Q8TD19); assay: Inhibition of human NEK9 assessed as percent of control at 2000 nM by KINOMEscan assay relative to control
[27] = test system: Epidermal growth factor receptor (Homo sapiens), P00533 [UNDEFINED MUTATION]; assay: Inhibition of human EGFR L747-T751del/Sins double mutant assessed as percent of control at 2000 nM by KINOMEscan assay relative to control
[28] = target: Serine/threonine-protein kinase SIK3 (Homo sapiens) (UniProt Q9Y2K2); assay: Inhibition of human QSK assessed as percent of control at 2000 nM by KINOMEscan assay relative to control
[29] = target: Serine/threonine-protein kinase 32B (Homo sapiens) (UniProt Q9NY57); assay: Inhibition of human YANK2 assessed as percent of control at 2000 nM by KINOMEscan assay relative to control
[30] = target: Eukaryotic translation initiation factor 2-alpha kinase 1 (Homo sapiens) (UniProt Q9BQI3); assay: Inhibition of human EIF2AK1 assessed as percent of control at 2000 nM by KINOMEscan assay relative to control

Structure (SMILES): CN(C)C(=O)c1ccc(N2CCCN(c3ccnc4sc(C(N)=O)c(N)c34)CC2)cc1
- Activity [1]: 88% and 97%
- Activity [2]: 94% and 100%
- Activity [3]: 100% and 93%
- Activity [4]: 89% and 68%
- Activity [5]: 90% and 86%
- Activity [6]: 92% and 100%
- Activity [7]: 100%
- Activity [8]: 100%
- Activity [9]: 97% and 88%
- Activity [10]: 100% and 86%
- Activity [11]: 88%
- Activity [12]: 91%
- Activity ([12]; INHIBITOR): 44%
- Activity [13]: 92% and 87%
- Activity [14]: 94% and 80%
- Activity [15]: 99%
- Activity ([15]; INHIBITOR): 36%
- Activity [16]: 88% and 70%
- Activity [17]: 100% and 97%
- Activity [18]: 80%
- Activity ([18]; INHIBITOR): 40%
- Activity [19]: 100%
- Activity [20]: 99% and 100%
- Activity [21]: 97%
- Activity [22]: 83% and 100%
- Activity [23]: 88% and 82%
- Activity [24]: 86% and 100%
- Activity [25]: 94% and 96%
- Activity [26]: 100% and 89%
- Activity [27]: 87% and 100%
- Activity [28]: 89% and 97%
- Activity [29]: 89% and 84%
- Activity [30]: 93% and 78%

Source: ChEMBL document CHEMBL4804286, “3-amino-4-(4-(4 (dimethylcarbamoyl) phenyl)-1,4-diazepan-1-yl) thieno [2,3-b] pyridine-2-carboxamide for use in cancer therapy and formulations comprising the same” (2020)
